Source: patent publication US20230149323A1, “INHIBITORS OF THE INTERACTION OF THE UPAR/FPRS RECEPTORS” (ORPHA BIOTECH S.R.L., priority 2020, published 2023)
Entries after “also recorded” stand apart in the source; their conditions may differ.

Experiments:
[1] = target: T1, bond of purified uPAR to the VN (Homo sapiens, UniProt Q03405); test: Bond of soluble biotinylated uPAR to immobilized VN (ELISA); assay type: binding; settings: FIG. 2(A): compounds at 50 µM vs DMSO vehicle (100%)
T1 construct: Soluble recombinant uPAR (suPAR; R&D System, Minneapolis, MN, USA); purchased R&D System
T1 sequence (Q03405 23-305 limits assumed): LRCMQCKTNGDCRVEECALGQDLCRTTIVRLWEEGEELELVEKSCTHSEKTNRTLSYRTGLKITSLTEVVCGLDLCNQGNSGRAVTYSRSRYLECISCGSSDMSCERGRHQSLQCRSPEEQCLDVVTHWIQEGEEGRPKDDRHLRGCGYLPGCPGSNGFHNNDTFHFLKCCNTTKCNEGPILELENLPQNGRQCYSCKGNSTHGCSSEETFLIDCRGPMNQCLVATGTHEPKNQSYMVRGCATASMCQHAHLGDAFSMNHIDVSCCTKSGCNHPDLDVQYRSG
Protocol: Soluble recombinant uPAR (suPAR; R&D System, Minneapolis, MN, USA) was biotinylated and purified with the biotinylation module of the proteins ECL Amersham according to the producer’s instructions (GE Healthcare, Buckinghamshire, UK).
The (high-binding) plates with 96 wells (Corning, New York, USA) were covered with 0.5 µg/well of VN (Becton Dickinson Biosciences, Franklin Lakes, NJ, USA) diluted in PBS (0.08 M NaCl, 0.002 M KCl, 0.0115 M Na2HPO4, 0.002 M KH2PO4, pH 7.2) or bovine serum albumin (BSA), as negative control, and incubated at 4° C. for the entire night. After a washing in PBS, the residual bond sites were blocked with 200 µL of BSA at 1% in PBS, for 1 hour at ambient temperature. 25 nmol/L of biotinylated s-uPAR (diluted in PBS, 1 mg/mL of BSA), on its own or in the presence of selected compounds, were placed in the covered wells. The plates were maintained at 4° C. for 1 hour, washed with PBS containing 0.1% Tween 20 and then avidin marked with peroxidase (Amersham), diluted 1:1.500 in PBS containing 10 mg/mL of BSA. After further washings, the substrate of peroxidase o-phenylenediamine (Sigma, St. Louis, MO, USA) was added and left to react for 3 minutes. The reactions were stopped with 1 mol/L H2SO4 and the product was measured at 492 nm by using an automated plate reader (Bio-Rad, Munich, Germany).

BJ cells = test: Cell adhesion assay to VN on BJ cells; assay type: cell-based, human; settings: FIG. 2(B): BJ cells treated with compounds at 50 µM vs DMSO vehicle (100%)
Protocol: The cell line BJ (ATCC CRL2522) was used as model of human skin fibroblasts. The cells were cultivated in Dulbecco’s Modified Eagle Medium (DMEM) containing fetal bovine serum at 10% (FBS) at 37° C. with CO2 at 5%.
The plates with 96 wells (Nunc, Roskilde, Denmark) were covered with VN (1 µg) or with 100 µl of 1% BSA deactivated with heat in PBS, as negative control, and incubated during the entire night at 4° C. The plates were then blocked 1 hour at ambient temperature with 1% BSA deactivated with heat in 1% PBS. The cells were detached with PBS containing 2 mM of EDTA and washed with DMEM lacking serum, they were counted, plated in the wells with a density of 10^5 cells/well and incubated for 1 hour at 37° C. in the presence of or in the absence of the selected compounds. The cells were then fixed with paraformaldehyde at 3% in PBS for 10 minutes and then incubated with methanol at 2% for 10 minutes. The cells were finally colored for 10 minutes with 0.5% crystal violet in 20% methanol, eluted with 0.1 mol/l of sodium citrate in 50% ethanol (pH 4.2) and the absorbance was measured at 540 nm with a spectrophotometer.

Row | inhibitory activity against the interaction of the uPAR with the VN in vitro [1] | SMILES | inhibitory activity against cell adhesion to the VN (BJ cells)
1 | greater inhibitory activity | Cc1cc(Cc2cc(C)cc(C(C)(C)C)c2O)c(O)c(C(C)(C)C)c1 [Compound 20, 6,6′-methylenebis(2-(tert-butyl)-4-methylphenol)] | greater inhibitory activity; also recorded: considerable contribution
2 | greater inhibitory activity | Cc1ccc(C(C)(C)c2ccc(C)cc2O)c(O)c1 [Compound 3, 6,6′-(propan-2,2-diyl)bis(3-methylphenol)] | greater inhibitory activity
3 | greater inhibitory activity | CCCc1cc(-c2ccc(O)c(CCC)c2)ccc1O [Compound 19, 3,3′-dipropyl[1,1′-biphenyl]-4,4′-diol] | greater inhibitory activity; also recorded: considerable contribution
4 | greater inhibitory activity | CC(C)(C)c1cc(Cl)c(O)c(Cc2cc(C(C)(C)C)cc(Cl)c2O)c1 [Compound 23, 6,6′-methylenebis(4-(tert-butyl)-2-chlorophenol)] | greater inhibitory activity; also recorded: considerable contribution
